# Test results taken from US8440637B2, “Combination treatment for the treatment of hepatitis C virus infection” (priority 2007, dated 2013).
# Entries after “also recorded” stand apart in the source; their conditions may differ. Strand notation (5' to 3'): a small letter for the sugar, then the base; units joined by * are phosphorothioate-linked, units joined directly phosphodiester-linked; [ ] holds rarer units or linkages, { } end groups; capitals alone tell only the bases. l = locked nucleic acid (LNA); [5mC] = 5-methylcytosine; d = 2'-deoxy (DNA)
# Legend:
# [1] = test system: miR-122a; assay: miR-122a levels in mouse liver by microRNA specific qPCR; format: in vivo
# Protocol: Total RNA was extracted from liver samples as described above and analysed for miR-122a levels by microRNA specific QPCR.
# In vivo study: Ten groups of animals (female C57/BL6; 3 mice per group) were treated in the following manner. Group 1 animals were injected with 0.2 ml saline by i.p. on day 0, day 2 and day 4. Groups 2-10 were dosed by i.p. with three different conc. (25 mg/kg, 5 mg/kg and 1 mg/kg) of either LNA antimiR-122a/SEQ ID NO: 61 (group 2-4), LNA antimir-122a/SEQ ID NO: 66 (group 5-7) or LNA antimir-122a/SEQ ID NO: 63 (group 8-10); the LNA antimir-122a sequences are given in the Table 1. All three LNA antimiR-122a oligonucleotides target the liver-specific miR-122a. The doses were calculated from the Day 0 body weights of each animal.
# The animals were sacrificed 48 hours after last dose (Day 6), retro-orbital blood was collected in tubes containing EDTA and the plasma fraction harvested and stored frozen −80° C. for cholesterol analysis. At sacrifice livers were dissected and one portion was cut into 5 mm cubes and immersed in 5 volumes of ice-cold RNAlater. A second portion was snap frozen in liquid nitrogen and stored for cryo-sectioning.
# Total RNA was extracted from liver samples using Trizol reagent according to the manufacturer's recommendations (Invitrogen, USA) and analysed for miR-122a levels by microRNA-specific QPCR according to the manufacturer's recommendations (Ambion, USA). […]
# (§1) NMRI female mice were treated with indicated doses of LNA-antimiR (SEQ ID NO: 61) along with a mismatch control (m, SEQ ID NO: 65), saline and antagomir (SPC3595) for three consecutive days and sacrificed 24 hours after last dose (as in example 11 “old design”, n=5). miR-122 levels were analyzed by qPCR and normalized to the saline treated group.
# C57BL/6J female mice were fed on high fat diet for 13 weeks before the initiation of the SEQ ID NO: 63 treatment. […] Both hypercholesterolemic and normal mice were treated i.p. twice weekly with 5 mg/kg SEQ ID NO: 63 and the corresponding mismatch control for a study period of 5½ weeks. Blood samples were collected weekly and total plasma cholesterol was measured during the entire course of the study. Upon sacrificing the mice, liver and blood samples were prepared for total RNA extraction, miRNA and mRNA quantification, assessment of the serum transaminase levels, and liver histology.
# The miR-122 and let-7a microRNA levels were quantified with TaqMan microRNA Assay (Applied Biosystems) following the manufacturer's instructions. The RT reaction was diluted ten times in water and subsequently used for real time PCR amplification according to the manufacturer's instructions. A two-fold cDNA dilution series from liver total RNA of a saline-treated animal or mock transfected cells cDNA reaction (using 2.5 times more total RNA than in samples) served as standard to ensure a linear range (Ct versus relative copy number) of the amplification. Applied Biosystems 7500 or 7900 real-time PCR instrument was used for amplification.
# [2] = test system: miR-122a target genes (Bckdk, aldolase A, Nrdg3, CD320, Vldlr); assay: miR-122a target mRNA levels in mouse liver by qPCR; format: in vivo; details: for Bckdk and AldoA mRNA levels compared to SEQ ID NO: 61 treated mice (in words) / upregulation of miR-122a target genes Bckdk and AldoA (in words): liver, 48 hours after last dose (Day 6)
# Protocol: The saline control and different LNA-antimiR-122a treated animals were sacrificed 48 hours after last dose (Day 6), and total RNA was extracted from liver samples as using Trizol reagent according to the manufacturer's recommendations (Invitrogen, USA). The mRNA levels were assessed by real-time quantitative RT-PCR for two miR-122a target genes, Bckdk (branched chain ketoacid dehydrogenase kinase, ENSMUSG00000030802) and aldolase A (aldoA, ENSMUSG00000030695), respectively, as well as for GAPDH as control, using Taqman assays according to the manufacturer's instructions (Applied biosystems, USA).
# NMRI mice were administered intravenously with SEQ ID NO: 61 SEQ ID NO: 61 using daily doses ranging from 2.5 to 25 mg/kg for three consecutive days. Animals were sacrificed 24 hours, 1, 2 or 3 weeks after last dose. Livers were harvested divided into pieces and submerged in RNAlater (Ambion) or snap-frozen. RNA was extracted with Trizol reagent according to the manufacturer's instructions (Invitrogen) from the RNAlater tissue, except that the precipitated RNA was washed in 80% ethanol and not vortexed. The RNA was used for mRNA TaqMan qPCR according to manufacturer (Applied biosystems) or northern blot (see below). The snap-frozen pieces were cryo-sectioned for in situ hybridizations.
# Mice were treated with different SEQ ID NO: 61 SEQ ID NO: 61 doses for three consecutive days, as described above and sacrificed 24 hours after last dose. Total RNA extracted from liver was subjected to qPCR. […] Total liver RNA from 2 to 3 mice per group sacrificed 24 hours after last dose were subjected to qPCR for the indicated genes. Shown in FIG. 9 is mRNA levels relative to Saline group, n=2-3 (2.5-12.5 mg/kg/day: n=2, no SD). Shown is also the mismatch control (m, SEQ ID NO: 65).
# Assayed genes: Nrdg3 Aldo A, Bckdk, CD320 with predicted miR-122 target site.
# NMRI female mice were treated with 25 mg/kg/day SEQ ID NO: 61SEQ ID NO: 61 along with saline control for three consecutive days and sacrificed 1, 2 or 3 weeks after last dose, respectively. RNA was extracted from livers and mRNA levels of predicted miR-122a target mRNAs, selected by microarray data were investigated by qPCR. Three animals from each group were analysed.
# mRNA levels are normalized to the individual GAPDH levels and to the mean of the Saline treated group at each individual time point. Included are also the values from the animals sacrificed 24 hours after last dose. Shown is mean and standard deviation, n=3 (24 h n=3)
# The same liver RNA samples as in previous example were investigated for Vldlr induction.
# as §1
# mRNA quantification of selected genes was done using standard Tag Man assays (Applied Biosystems). The reverse transcription reaction was carried out with random decamers, 0.5 μg total RNA, and the M-MLV RT enzyme from Ambion according to a standard protocol. First strand cDNA was subsequently diluted 10 times in nuclease-free water before addition to the RT-PCR reaction mixture. A two-fold cDNA dilution series from liver total RNA of a saline-treated animal or mock transfected cells cDNA reaction (using 2.5 times more total RNA than in samples) served as standard to ensure a linear range (Ct versus relative copy number) of the amplification. Applied Biosystems 7500 or 7900 real-time PCR instrument was used for amplification.
# [3] = i.p. on day 0, 2 and 4 at 25, 5 and 1 mg/kg, 48 hours after last dose
Substance,"efficacy in vivo in miR-122a silencing compared to SEQ ID NO: 61 (in words) [1, 3]",Bckdk and AldoA mRNA levels compared to SEQ ID NO: 61 treated mice (in words) [2],upregulation of miR-122a target genes Bckdk and AldoA (in words) [2],"IC50, miR-122a silencing in liver ([1]; female C57/BL6, i.p. on day 0, 2 and 4 at 25, 5 and 1 mg/kg, 48 hours after last dose)","miR-122 levels in liver after long-term treatment (in words) ([1]; hypercholesterolemic and normal mice, 5 mg/kg i.p. twice weekly for 5½ weeks)","miR-122a inhibition (in words) ([1]; 25 mg/kg i.v. on 3 successive days, Day 16)","miR-122a levels (in words) ([1]; 25 mg/kg i.v. on 3 successive days, Day 23)","miR-122a inhibition compared to saline control (in words) ([1]; 25 mg/kg i.v. on 3 successive days, sacrifice Day 9, 16 or 23)","IC50, miR-122a levels in liver ([1]; i.v. on 3 successive days, 2.5-25 mg/kg, 24 hour after last dose)",reduction of miR-122 levels ([1]; one week after last LNA dose),"Vldlr induction in liver (in words) ([2]; 25 mg/kg/day for three consecutive days, 1, 2 or 3 weeks after last dose)","mRNA levels of predicted miR-122a target mRNAs over time (in words) ([2]; NMRI female mice, 25 mg/kg/day for three consecutive days, 1, 2 or 3 weeks after last dose)","de-repression of miR-122 target mRNAs (AldoA, Bckdk, CD320, Nrdg3) (in words) ([2]; NMRI female mice, three consecutive days, 24 hours after last dose, compared to antagomir treated mice, listed as LNA-antimiR)","induction of miR-122a target genes (Nrdg3, Aldo A, Bckdk, CD320) (in words) ([2]; different doses for three consecutive days, 24 hours after last dose)"
5′-AttGTcaCaCtCC-3′ (antisense lA*dT*dT*lG*lT*dC*dA*l[5mC]*dA*l[5mC]*dT*l[5mC]*l[5mC]) [SEQ ID NO: 66],significantly improved efficacy in vivo,significantly higher,clear dose-dependent upregulation,–,–,–,–,–,–,–,–,–,–,–
"5′-CcAttGTcaCaCtCC-3′ (antisense CCATTGTCACACTCC; sugars from the 5' end ldlddllddldldll, backbone and methylation of C not given here) [SEQ ID NO: 63]",most potent,significantly higher,clear dose-dependent upregulation,~1 mg/kg,comparable profile in both hypercholesterolemic and normal mice,–,–,–,–,–,–,–,–,–
"5′-ccAttGtcAcaCtcCa-3′ (antisense CCATTGTCACACTCCA; sugars from the 5' end ddlddlddlddlddld, backbone and methylation of C not given here) [SEQ ID NO: 61]",–,–,clear dose-dependent upregulation,–,–,inhibition could still be detected,approached those of the saline group,two-fold inhibition,3 to 5 mg/kg,50%,transient up-regulation,transient induction followed by a restoration of normal expression levels,dose-dependent de-repression; also recorded: consistently higher,clear dose-dependent induction
